Patent publication US12281149B2, “Modulators of G-protein coupled receptors” (priority 2021, dated 2025)
*1 amine or outer side, *2 acyl side, *3 side chain or, on linkers, in order; H or OH if unused. Where a SMILES comes first, the peptide text is derived from it. Side-chain parts run from the residue outwards. [ ]: non-standard residue; d: D form. The star is where a group is joined. C20 diacid = O=C(O)CCCCCCCCCCCCCCCCCCC(=O)*; γGlu = O=C(O)[C@H](CCC(=O)[*:2])N[*:1]; X43 = O=C1CCC(C(=O)*)(c2ccccc2)CN1; X42 = CCOc1cnn(C(C)(C)C(=O)*)c1; X82 = CC(C)(C(=O)*)n1cc(N)cn1; AEEA = NCCOCCOCC(=O)O; Aib = CC(C)(N)C(=O)O; βAla = NCCC(=O)O

What was measured:
Format in all cases: cell-based
[1] = molecular target: T1, GIP receptor (Homo sapiens, UniProt P48546); experiment: PathHunter β-arrestin assay, GIP receptor; set-up: host or cells: PathHunter CHO-K1 GIPR β-Arrestin Cell Line; details: β-arrestin-2 recruitment, PathHunter CHO-K1 GIPR β-Arrestin Cell Line, 90 min at 37° C.; normalized to GIP; read-out: GIPR β Arrestin EC50
T1 sequence (P48546 22-466): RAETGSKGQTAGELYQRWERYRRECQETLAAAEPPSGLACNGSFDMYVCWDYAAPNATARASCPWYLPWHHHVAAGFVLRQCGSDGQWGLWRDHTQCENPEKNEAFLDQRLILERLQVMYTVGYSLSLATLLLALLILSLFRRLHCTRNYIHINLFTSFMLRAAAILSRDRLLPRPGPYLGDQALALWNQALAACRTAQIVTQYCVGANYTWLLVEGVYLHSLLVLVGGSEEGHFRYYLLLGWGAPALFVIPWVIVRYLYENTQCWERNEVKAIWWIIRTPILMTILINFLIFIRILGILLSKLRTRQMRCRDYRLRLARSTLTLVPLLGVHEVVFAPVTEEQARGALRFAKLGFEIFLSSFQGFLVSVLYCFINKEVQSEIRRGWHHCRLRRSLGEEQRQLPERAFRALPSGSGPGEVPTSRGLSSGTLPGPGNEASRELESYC

[2] = molecular target: T1, GIP receptor; experiment: HitHunter cAMP assay, GIP receptor; details: for EC50: CHO cells stably expressing GIP receptor, cAMP accumulation, 30 min, read-out: EC50 GIP-1R; for Emax: CHO cells, cAMP, normalized to maximum signal from GIP (high) and DMSO (low), read-out: Emax GIP-1R
[3] = molecular target: T2, GLP-1 receptor (Homo sapiens, UniProt P43220); experiment: HitHunter cAMP assay, GLP-1 receptor; details: for EC50: CHO cells stably expressing human GLP-1 receptor, cAMP accumulation, 30 min, read-out: EC50 GLP-1R; for Emax: CHO cells, cAMP, normalized to maximum signal from GLP-1 (high) and DMSO (low), read-out: Emax GLP-1R
T2 sequence (P43220 24-463): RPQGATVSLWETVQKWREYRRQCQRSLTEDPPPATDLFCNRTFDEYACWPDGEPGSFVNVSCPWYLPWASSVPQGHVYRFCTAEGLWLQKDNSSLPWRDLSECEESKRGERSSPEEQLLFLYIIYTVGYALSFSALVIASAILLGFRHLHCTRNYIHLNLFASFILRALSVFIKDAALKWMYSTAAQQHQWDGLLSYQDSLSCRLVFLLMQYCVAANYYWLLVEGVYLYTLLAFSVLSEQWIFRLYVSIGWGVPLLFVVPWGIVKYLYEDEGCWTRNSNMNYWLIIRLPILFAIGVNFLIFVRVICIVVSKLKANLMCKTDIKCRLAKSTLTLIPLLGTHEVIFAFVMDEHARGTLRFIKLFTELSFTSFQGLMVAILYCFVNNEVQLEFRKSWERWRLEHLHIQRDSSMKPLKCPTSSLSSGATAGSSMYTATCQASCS

[4] = molecular target: T2, GLP-1 receptor; experiment: PathHunter β-arrestin assay, GLP-1 receptor; set-up: host or cells: PathHunter CHO-K1 GLP1R β-Arrestin Cell Line; details: β-arrestin-2 recruitment, PathHunter CHO-K1 GLP1R β-Arrestin Cell Line, 90 min at 37° C.; normalized to GLP-1; read-out: GLP-1R β Arrestin EC50

| SMILES | EC50 [1] [µM] | EC50 [2] [µM] | Emax [2] [%] | EC50 [3] [µM] | Emax [3] [%] | EC50 [4] [µM] |
| --- | --- | --- | --- | --- | --- | --- |
| CCOc1cnn(C(C)(C)C(=O)NCCC(=O)N[C@@H](CCC(=O)O)C(=O)NCC(=O)N[C@H](C(=O)N[C@@H](Cc2ccccc2)C(=O)N[C@H](C(=O)N[C@@H](CO)C(=O)N[C@@H](CC(=O)O)C(=O)N[C@@H](Cc2ccc(O)cc2)C(=O)N[C@@H](CO)C(=O)N[C@H](C(=O)NC(C)(C)C(=O)N[C@@H](CC(C)C)C(=O)N[C@@H](CC(=O)O)C(=O)N[C@@H](CCCCN)C(=O)N[C@H](C(=O)N[C@@H](C)C(=O)N[C@@H](CCC(N)=O)C(=O)N[C@@H](CCCCNC(=O)COCCOCCNC(=O)COCCOCCNC(=O)CC[C@H](NC(=O)CCCCCCCCCCCCCCCCCCC(=O)O)C(=O)O)C(=O)N[C@@H](C)C(=O)N[C@@H](Cc2ccccc2)C(=O)N[C@H](C(=O)N[C@@H](CCC(N)=O)C(=O)N[C@@H](Cc2c[nH]c3ccccc23)C(=O)N[C@@H](CC(C)C)C(=O)N[C@H](C(=O)N[C@@H](C)C(=O)NCC(=O)NCC(=O)N2CCC[C@H]2C(=O)N[C@@H](CO)C(=O)N[C@@H](CO)C(=O)NCC(=O)N[C@@H](C)C(=O)N2CCC[C@H]2C(=O)N2CCC[C@H]2C(=O)N2CCC[C@H]2C(=O)N[C@@H](CO)C(N)=O)[C@@H](C)CC)C(C)C)[C@@H](C)CC)[C@@H](C)CC)[C@@H](C)O)[C@@H](C)O)c1 [Compound 152] ({X42-βAla}-EGTFTSDYSI[Aib]LDKIAQK([AEEA-AEEA-γGlu-C20 diacid])AFVQWLIAGGPSSGAPPPS-NH2) | > 1 | 0.01 to 0.1 | 104 | 0.0001 to 0.001 | 98 | > 1 |
| CC[C@H](C)[C@H](NC(=O)[C@H](CO)NC(=O)[C@H](CCCCNC(=O)COCCOCCNC(=O)COCCOCCNC(=O)CC[C@H](NC(=O)CCCCCCCCCCCCCCCCCCC(=O)O)C(=O)O)NC(=O)[C@H](CC(=O)O)NC(=O)[C@H](CO)NC(=O)[C@@H](NC(=O)[C@H](Cc1ccccc1)NC(=O)[C@@H](NC(=O)CNC(=O)[C@H](CCC(=O)O)NC(=O)CCNC(=O)C1(c2ccccc2)CCC(=O)NC1)[C@@H](C)O)[C@@H](C)O)C(=O)N[C@@H](Cc1ccc(O)cc1)C(=O)N[C@@H](CC(C)C)C(=O)N[C@@H](CC(=O)O)C(=O)N[C@@H](CCCCN)C(=O)N[C@@H](CCC(N)=O)C(=O)N[C@@H](C)C(=O)N[C@@H](C)C(=O)NC(C)(C)C(=O)N[C@@H](CCC(=O)O)C(=O)N[C@@H](Cc1ccccc1)C(=O)N[C@H](C(=O)N[C@@H](CC(N)=O)C(=O)N[C@@H](Cc1c[nH]c2ccccc12)C(=O)N[C@@H](CC(C)C)C(=O)N[C@@H](CC(C)C)C(=O)N[C@@H](C)C(=O)NCC(=O)NCC(=O)N1CCC[C@H]1C(=O)N[C@@H](CO)C(=O)N[C@@H](CO)C(=O)NCC(=O)N[C@@H](C)C(=O)N1CCC[C@H]1C(=O)N1CCC[C@H]1C(=O)N1CCC[C@H]1C(=O)N[C@@H](CO)C(N)=O)C(C)C (stereo partly drawn) [Compound 153] ({X43-βAla}-EGTFTSDK([AEEA-AEEA-γGlu-C20 diacid])SIYLDKQAA[Aib]EFVNWLLAGGPSSGAPPPS-NH2) | > 1 | 0.001 to 0.01 | 105 | 0.0001 to 0.001 | 101 | > 1 |
| CC[C@H](C)[C@H](NC(=O)[C@H](CO)NC(=O)[C@H](Cc1ccc(O)cc1)NC(=O)[C@H](CC(=O)O)NC(=O)[C@H](CO)NC(=O)[C@@H](NC(=O)[C@H](Cc1ccccc1)NC(=O)[C@@H](NC(=O)CNC(=O)[C@H](CCC(=O)O)NC(=O)CCNC(=O)C1(c2ccccc2)CCOCC1)[C@@H](C)O)[C@@H](C)O)C(=O)N[C@@H](Cc1ccc(O)cc1)C(=O)N[C@@H](CC(C)C)C(=O)N[C@@H](CC(=O)O)C(=O)N[C@@H](CCCCN)C(=O)N[C@@H](CCC(N)=O)C(=O)N[C@@H](C)C(=O)N[C@@H](C)C(=O)NC(C)(C)C(=O)N[C@@H](CCC(=O)O)C(=O)N[C@@H](Cc1ccccc1)C(=O)N[C@H](C(=O)N[C@@H](CC(N)=O)C(=O)N[C@@H](Cc1c[nH]c2ccccc12)C(=O)N[C@@H](CC(C)C)C(=O)N[C@@H](CC(C)C)C(=O)N[C@@H](C)C(=O)NCC(=O)NCC(=O)N1CCC[C@H]1C(=O)N[C@@H](CO)C(=O)N[C@@H](CO)C(=O)NCC(=O)N[C@@H](C)C(=O)N1CCC[C@H]1C(=O)N1CCC[C@H]1C(=O)N1CCC[C@H]1C(=O)N[C@@H](CO)C(=O)N[C@@H](CCCCNC(=O)COCCOCCNC(=O)COCCOCCNC(=O)CC[C@H](NC(=O)CCCCCCCCCCCCCCCCCCC(=O)O)C(=O)O)C(N)=O)C(C)C [Compound 154] | > 1 | 0.01 to 0.1 | 106 | 0.001 to 0.01 | 99 | > 1 |
| CC[C@H](C)[C@H](NC(=O)[C@H](CO)NC(=O)[C@H](Cc1ccc(O)cc1)NC(=O)[C@H](CC(=O)O)NC(=O)[C@H](CO)NC(=O)[C@@H](NC(=O)[C@H](Cc1ccccc1)NC(=O)[C@@H](NC(=O)CNC(=O)[C@H](CCC(=O)O)NC(=O)CCNC(=O)C1(c2ccc(Cl)cc2)CCCC1)[C@@H](C)O)[C@@H](C)O)C(=O)N[C@@H](Cc1ccc(O)cc1)C(=O)N[C@@H](CC(C)C)C(=O)N[C@@H](CC(=O)O)C(=O)N[C@@H](CCCCN)C(=O)N[C@@H](CCC(N)=O)C(=O)N[C@@H](C)C(=O)N[C@@H](C)C(=O)NC(C)(C)C(=O)N[C@@H](CCC(=O)O)C(=O)N[C@@H](Cc1ccccc1)C(=O)N[C@H](C(=O)N[C@@H](CC(N)=O)C(=O)N[C@@H](Cc1c[nH]c2ccccc12)C(=O)N[C@@H](CC(C)C)C(=O)N[C@@H](CC(C)C)C(=O)N[C@@H](C)C(=O)NCC(=O)NCC(=O)N1CCC[C@H]1C(=O)N[C@@H](CO)C(=O)N[C@@H](CO)C(=O)NCC(=O)N[C@@H](C)C(=O)N1CCC[C@H]1C(=O)N1CCC[C@H]1C(=O)N1CCC[C@H]1C(=O)N[C@@H](CO)C(=O)N[C@@H](CCCCNC(=O)COCCOCCNC(=O)COCCOCCNC(=O)CC[C@H](NC(=O)CCCCCCCCCCCCCCCCCCC(=O)O)C(=O)O)C(N)=O)C(C)C [Compound 155] | > 1 | 0.01 to 0.1 | 104 | 0.001 to 0.01 | 101 | > 1 |
| CC[C@H](C)[C@H](NC(=O)[C@H](CO)NC(=O)[C@H](Cc1ccc(O)cc1)NC(=O)[C@H](CC(=O)O)NC(=O)[C@H](CO)NC(=O)[C@@H](NC(=O)[C@H](Cc1ccccc1)NC(=O)[C@@H](NC(=O)CNC(=O)[C@H](CCC(=O)O)NC(=O)CCNC(=O)C1(c2ccccc2)CCC(=O)NC1)[C@@H](C)O)[C@@H](C)O)C(=O)N[C@@H](Cc1ccc(O)cc1)C(=O)N[C@@H](CC(C)C)C(=O)N[C@@H](CC(=O)O)C(=O)N[C@@H](CCCCN)C(=O)N[C@@H](CCC(N)=O)C(=O)N[C@@H](C)C(=O)N[C@@H](C)C(=O)NC(C)(C)C(=O)N[C@@H](CCC(=O)O)C(=O)N[C@@H](Cc1ccccc1)C(=O)N[C@H](C(=O)N[C@@H](CC(N)=O)C(=O)N[C@@H](Cc1c[nH]c2ccccc12)C(=O)N[C@@H](CC(C)C)C(=O)N[C@@H](CC(C)C)C(=O)N[C@@H](C)C(=O)NCC(=O)NCC(=O)N1CCC[C@H]1C(=O)N[C@@H](CO)C(=O)N[C@@H](CO)C(=O)NCC(=O)N[C@@H](C)C(=O)N1CCC[C@H]1C(=O)N1CCC[C@H]1C(=O)N1CCC[C@H]1C(=O)N[C@@H](CO)C(=O)N[C@@H](CCCCNC(=O)COCCOCCNC(=O)COCCOCCNC(=O)CC[C@H](NC(=O)CCCCCCCCCCCCCCCCCCC(=O)O)C(=O)O)C(N)=O)C(C)C (stereo partly drawn) [Compound 156] | > 1 | 0.001 to 0.01 | 95 | 0.001 to 0.01 | 95 | > 1 |
| CC[C@H](C)[C@H](NC(=O)[C@H](CC(C)C)NC(=O)[C@H](Cc1c[nH]c2ccccc12)NC(=O)[C@H](CCC(N)=O)NC(=O)[C@@H](NC(=O)[C@H](Cc1ccccc1)NC(=O)[C@H](C)NC(=O)[C@H](CCCCNC(=O)COCCOCCNC(=O)COCCOCCNC(=O)CC[C@H](NC(=O)CCCCCCCCCCCCCCCCCCC(=O)O)C(=O)O)NC(=O)[C@H](CCC(N)=O)NC(=O)[C@H](C)NC(=O)[C@@H](NC(=O)[C@H](CCCCN)NC(=O)[C@H](CC(=O)O)NC(=O)[C@H](CC(C)C)NC(=O)C(C)(C)NC(=O)[C@@H](NC(=O)[C@H](CO)NC(=O)[C@H](Cc1ccc(O)cc1)NC(=O)[C@H](CC(=O)O)NC(=O)[C@H](CO)NC(=O)[C@@H](NC(=O)[C@H](Cc1ccccc1)NC(=O)[C@@H](NC(=O)CNC(=O)[C@H](CCC(=O)O)NC(=O)CCNC(=O)C(C)(C)n1cc(N)cn1)[C@@H](C)O)[C@@H](C)O)[C@@H](C)CC)[C@@H](C)CC)C(C)C)C(=O)N[C@@H](C)C(=O)NCC(=O)NCC(=O)N1CCC[C@H]1C(=O)N[C@@H](CO)C(=O)N[C@@H](CO)C(=O)NCC(=O)N[C@@H](C)C(=O)N1CCC[C@H]1C(=O)N1CCC[C@H]1C(=O)N1CCC[C@H]1C(=O)N[C@@H](CO)C(N)=O [Compound 157] ({X82-βAla}-EGTFTSDYSI[Aib]LDKIAQK([AEEA-AEEA-γGlu-C20 diacid])AFVQWLIAGGPSSGAPPPS-NH2) | > 1 | 0.01 to 0.1 | 106 | 0.0001 to 0.001 | 100 | > 1 |
